Series [1] concerns the target T1, LIM domain kinase 1 (Homo sapiens, UniProt P53667). Put plainly: Inhibition of LIMK1 (unknown origin) phosphorylation of cofilin.
Target sequence in this assay (P53667 whole entry, the tested form may be a part): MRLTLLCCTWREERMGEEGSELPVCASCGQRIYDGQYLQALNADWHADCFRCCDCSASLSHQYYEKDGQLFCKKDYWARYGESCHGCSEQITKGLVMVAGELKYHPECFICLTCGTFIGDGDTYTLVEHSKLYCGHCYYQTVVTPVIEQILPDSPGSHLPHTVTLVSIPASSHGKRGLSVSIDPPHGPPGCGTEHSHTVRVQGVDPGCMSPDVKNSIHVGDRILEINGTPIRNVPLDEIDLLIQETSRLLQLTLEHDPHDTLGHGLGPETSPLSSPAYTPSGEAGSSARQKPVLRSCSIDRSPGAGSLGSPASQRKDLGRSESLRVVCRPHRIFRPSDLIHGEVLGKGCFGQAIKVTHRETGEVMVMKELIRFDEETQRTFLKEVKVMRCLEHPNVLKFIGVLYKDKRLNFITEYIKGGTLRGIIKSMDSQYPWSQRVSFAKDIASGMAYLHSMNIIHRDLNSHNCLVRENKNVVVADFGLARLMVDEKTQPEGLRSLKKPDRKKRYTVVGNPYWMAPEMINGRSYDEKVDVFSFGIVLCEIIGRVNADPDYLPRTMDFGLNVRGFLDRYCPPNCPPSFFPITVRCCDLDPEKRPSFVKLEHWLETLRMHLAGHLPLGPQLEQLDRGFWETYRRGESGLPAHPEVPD
The target of series [2] is Rho-associated protein kinase 2 (Homo sapiens, UniProt O75116). Put plainly: Inhibition of human recombinant ROCK2 by ADP glo kinase assay. For orientation: ADP-Glo turns the ADP formed in a reaction into a luminescent signal.
In series [3] the target is T2, LIM domain kinase 2 (Homo sapiens, UniProt P53671). Description: Inhibition of LIMK2 (unknown origin) in presence of ATP at 25 uM.
A further series is filed under the species Mus musculus. Put plainly: Antiglaucoma activity in ocular […] mouse assessed as reduction in intraocular pressure at 15 ug measured after 4 hrs. Type of series: functional. The note with it: dose 15 µg.
Series [4] addresses T2, LIM domain kinase 2. Put plainly: Inhibition of human recombinant LIMK2.
Series [5] concerns the target T1, LIM domain kinase 1. Description: Inhibition of human recombinant LIMK1.
Target sequence in this assay (P53667 whole entry, the tested form may be a part): as above
The next series concerns MDA-MB-231. Description: Cytotoxicity against human MDA-MB-231 cells assessed as reduction in cell viability incubated for 96 hrs at 3 uM by MTT method relative to control. Type of series: functional. (In general: Tetrazolium assays rely on reduction of a dye to a coloured formazan, in cell work by metabolically active cells.)
Series [6] deals with T1, LIM domain kinase 1. Put plainly: Inhibition of human LIMK1 (312 to 638 residues) expressed in Sf9 cells using […] as substrate incubated for 30 mins by micro-scintillation fluid method.
Target sequence in this assay (P53667 whole entry, looked up, the tested form may be a part): as the sequence (P53667 whole entry, the tested form may be a part) above
In series [7] the target is T1, LIM domain kinase 1. Description: Inhibition of human LIMK1 (321 to 647 residues) expressed in Sf9 cells using […] as substrate incubated for 30 mins by micro-scintillation fluid method.
Target sequence in this assay (P53667 whole entry, the tested form may be a part): as above
Series [8] concerns the target T2, LIM domain kinase 2. Description: Inhibition of LIMK2 (unknown origin).
For another series, the species on record is Homo sapiens. Put plainly: Selectivity index, ratio of IC50 for ROCK2 (unknown origin) to IC50 for PKA (unknown origin).
Series [9] deals with cAMP-dependent protein kinase (PKA) (Homo sapiens) (UniProt P22694+P17612+P22612). Put plainly: Inhibition of PKA (unknown origin) assessed as fold increase. Type of series: protein assay.
The target of series [10] is T1, LIM domain kinase 1. Description: Inhibition of LIMK1 (unknown origin).
Target sequence in this assay (P53667 whole entry, the tested form may be a part): as above
The test system of series [11] is Human immunodeficiency virus. Put plainly: Antiviral activity against HIV at 1 uM relative to control. It is filed as functional.
The subject of series [12] is Human immunodeficiency virus. Description: Antiviral activity against HIV at 10 uM relative to control. Type of series: functional.
In series [13] the test system is Human immunodeficiency virus. Description: Antiviral activity against HIV at 100 uM relative to control. Type of series: functional.
The target of series [14] is T2, LIM domain kinase 2. Description: Inhibition of LIMK2 (unknown origin) in presence of ATP at 200 uM.
Series [15] can be described thus: Inhibition of AbI (unknown origin). Also on record: species or system Homo sapiens.
The test system of series [16] is PANC-1. Description: Anti-tumor activity against human PANC-1 cells xenografted in athymic nude mouse assessed as reduction in tumor growth at 100 mg/kg, ip measured after 35 days relative to control. It is filed as functional. Also on record: scale not given: the % may be the effect or the level left. The note with it: time 35 day. Background: In xenograft studies the graft and the host belong to different species.

Series [17] has as its system PANC-1. Description: Cytotoxicity against human PANC-1 cells assessed as reduction in cell growth relative to control. Also on record: scale not given: the % may be the effect or the level left. Type of series: functional.
Series [18] in a line: Half life in rat, iv at 1 mg/kg. The note with it: in vivo. Type of series: ADME, organism-based.
The nature of another series: cells. The note with it: Mus musculus, NF-1.

Some results are limits rather than exact numbers.

As usually defined, the IC50 is the concentration at which inhibition is half-maximal. Usually half-life stands for the time in which the quantity being followed falls by half. Broadly, the EC50 is the concentration that produces a half-maximal response.

T2 sequence (P53671 whole entry, the tested form may be a part): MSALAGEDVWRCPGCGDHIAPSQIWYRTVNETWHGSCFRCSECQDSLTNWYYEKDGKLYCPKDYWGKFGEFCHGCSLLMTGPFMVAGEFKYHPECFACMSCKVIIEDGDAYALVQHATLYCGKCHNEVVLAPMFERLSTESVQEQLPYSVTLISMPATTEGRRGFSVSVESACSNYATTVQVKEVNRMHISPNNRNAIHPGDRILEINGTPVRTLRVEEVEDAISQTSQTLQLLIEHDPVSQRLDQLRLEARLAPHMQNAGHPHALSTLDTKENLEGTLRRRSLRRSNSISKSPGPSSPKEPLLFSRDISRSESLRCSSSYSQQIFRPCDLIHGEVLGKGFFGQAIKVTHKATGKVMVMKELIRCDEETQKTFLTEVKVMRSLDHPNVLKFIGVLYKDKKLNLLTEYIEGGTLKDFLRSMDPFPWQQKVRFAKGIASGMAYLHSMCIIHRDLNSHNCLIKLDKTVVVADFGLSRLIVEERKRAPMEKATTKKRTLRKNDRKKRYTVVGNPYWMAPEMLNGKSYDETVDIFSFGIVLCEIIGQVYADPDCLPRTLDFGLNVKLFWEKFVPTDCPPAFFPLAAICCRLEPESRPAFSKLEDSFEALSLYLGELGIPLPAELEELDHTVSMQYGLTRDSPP
Sequence of Rho-associated protein kinase 2 (O75116 whole entry, the tested form may be a part): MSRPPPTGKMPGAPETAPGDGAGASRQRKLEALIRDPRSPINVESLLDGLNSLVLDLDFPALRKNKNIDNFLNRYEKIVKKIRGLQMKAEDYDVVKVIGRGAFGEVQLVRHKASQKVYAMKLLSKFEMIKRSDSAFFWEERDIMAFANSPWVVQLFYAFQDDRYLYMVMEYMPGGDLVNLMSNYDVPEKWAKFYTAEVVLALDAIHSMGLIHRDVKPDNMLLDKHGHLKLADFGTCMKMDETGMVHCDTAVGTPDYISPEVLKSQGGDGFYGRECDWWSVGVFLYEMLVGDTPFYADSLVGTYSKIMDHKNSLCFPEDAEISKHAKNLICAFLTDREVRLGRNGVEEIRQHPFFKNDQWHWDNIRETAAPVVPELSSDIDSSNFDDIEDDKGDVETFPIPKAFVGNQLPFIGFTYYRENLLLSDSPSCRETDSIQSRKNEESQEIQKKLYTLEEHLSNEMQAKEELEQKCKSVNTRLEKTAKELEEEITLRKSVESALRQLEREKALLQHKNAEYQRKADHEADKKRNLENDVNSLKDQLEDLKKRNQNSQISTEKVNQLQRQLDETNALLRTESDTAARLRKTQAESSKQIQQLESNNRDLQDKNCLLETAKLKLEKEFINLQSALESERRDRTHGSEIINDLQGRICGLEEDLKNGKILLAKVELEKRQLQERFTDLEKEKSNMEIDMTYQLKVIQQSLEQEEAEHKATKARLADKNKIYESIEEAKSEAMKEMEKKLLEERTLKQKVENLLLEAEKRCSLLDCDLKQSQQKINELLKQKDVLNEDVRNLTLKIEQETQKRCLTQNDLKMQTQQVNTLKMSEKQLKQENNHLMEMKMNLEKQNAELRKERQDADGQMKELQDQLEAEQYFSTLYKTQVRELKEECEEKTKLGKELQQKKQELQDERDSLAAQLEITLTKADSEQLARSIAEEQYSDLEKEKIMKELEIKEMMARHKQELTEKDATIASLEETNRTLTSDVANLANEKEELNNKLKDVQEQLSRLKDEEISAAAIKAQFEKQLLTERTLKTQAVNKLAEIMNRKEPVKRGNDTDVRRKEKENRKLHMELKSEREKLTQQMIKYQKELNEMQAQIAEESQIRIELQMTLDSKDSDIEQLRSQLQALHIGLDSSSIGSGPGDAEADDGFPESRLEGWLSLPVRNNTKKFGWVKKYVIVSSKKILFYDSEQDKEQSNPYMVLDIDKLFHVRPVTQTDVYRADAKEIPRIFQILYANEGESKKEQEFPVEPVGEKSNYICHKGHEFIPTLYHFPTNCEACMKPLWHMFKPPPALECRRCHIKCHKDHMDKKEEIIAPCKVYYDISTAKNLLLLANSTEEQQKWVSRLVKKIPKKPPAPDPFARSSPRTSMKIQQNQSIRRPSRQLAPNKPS

The compound `COCCN(C(=O)Nc1ccc(-c2ncnc3[nH]c(C)c(C)c23)c(F)c1)c1ccc(Cl)cc1` registered an IC50 against LIM domain kinase 1 [1] of 8 nM. On to `Cc1c[nH]c2ncnc(-c3ccc(NC(=O)Nc4cccc(C(=O)NC(C)C)c4)cc3F)c12`, for which the half-maximal inhibitory concentration (IC50) in series [2] is 18 nM. For `Cc1c[nH]c2ncnc(N3CCC(C(=O)Nc4cccc(OC(=O)N(C)C)c4)[C@@H](C)C3)c12` (some centres not stated), the concentration for half-maximal inhibition (IC50) at LIM domain kinase 2 [3] came out at 110 nM.

Take `O=C(CC1CCCN1)Nc1ncc(-c2cc(C(F)F)nn2-c2c(Cl)cccc2Cl)s1` (configuration not stated): the Activity in the series filed under Mus musculus came to 5 mmHg. Turning to `Cc1c2cc[nH]c(=O)c2c(C)c2c1[nH]c1ccc(OC(=O)c3ccccc3)cc12`, the half-maximal inhibitory concentration (IC50) at LIM domain kinase 2 [4] was found to be 75 nM; on LIM domain kinase 1 [5] it was 50 nM. `CC(C)CNc1ncc(-c2ccncc2-c2ccccc2Cl)s1`: the Activity in the series on MDA-MB-231 was found to be 70%. As to `O=C(Nc1ncc(-c2cc(C(F)F)nn2-c2c(Cl)cccc2Cl)s1)C1CC1`, the half-maximal inhibitory concentration (IC50) on LIM domain kinase 1 [6] was 6 nM; on LIM domain kinase 1 [7], 5 nM. `CN(C)C1(C(=O)Nc2cccc(-c3ccccc3)c2)CCN(c2ncnc3[nH]c4c(c23)CCCC4)CC1`: the IC50 against LIM domain kinase 2 [8] was 0.1 nM. With `CN(C)C(=O)Oc1cccc(NC(=O)C2(CN)CCN(c3ncnc4[nH]c5c(c34)CCCC5)CC2)c1`, the Selectivity Index in the series listed under Homo sapiens turned out to be 1. The fold change (FC) in series [9] was determined as 0.7. With `Cc1[nH]c2ncnc(N3CCC(CN)(C(=O)Nc4cccc(OC(=O)N(C)C)c4)CC3)c2c1C`, the IC50 at LIM domain kinase 1 [10] is 23 nM.

`Cc1c[nH]c2ncnc(N3CCC(C(=O)Nc4cccc(OC(=O)N(C)C)c4)C(C)C3)c12` (configuration not stated): at LIM domain kinase 2 [3], the concentration for half-maximal inhibition (IC50) stood at 210 nM. With `COC(=O)c1ccc2[nH]c(C3CCN(c4ncnc5[nH]cc(Cl)c45)CC3)nc2c1`, the Activity was 50% in [11], 70% in series [12] and 80% in [13]. In the case of `COC(=O)Cc1cccc(NC(=O)C2(CN)CCN(c3ncnc4[nH]c5c(c34)CC(F)CC5)CC2)c1` (configuration not stated), the IC50 on LIM domain kinase 2 [14] was under 0.1 nM. In series [15], `CN(Cc1ccccc1)C(=O)c1ccc(S(=O)(=O)Nc2ccccc2)cc1` gave a half-maximal inhibitory concentration (IC50) of 6 nM.

On to `Cc1c[nH]c2ncnc(N3CCN(C(=O)Nc4cccc(OC(=O)N(C)C)c4)[C@@H](C)C3)c12`, for which the Activity in the series filed under Mus musculus worked out at 3 mmHg. `Cc1cc(C(=O)Nc2cccc(C(=O)Nc3cccc(C(F)(F)F)c3)c2)on1`: the figures for the Activity in the series with PANC-1 [16] and in the series with PANC-1 [17] were 80% and 46%, respectively.

Consider `Cc1ccc(-c2cnccc2-c2cnc(Nc3ccc(O)cc3)s2)c(Cl)c1`, for which the Activity in the series with MDA-MB-231 is listed as 96%. `Cc1c[nH]c2ncnc(-c3ccc(NC(=O)N(CCN(C)C)c4ccc(Cl)cc4)cc3)c12` gave a half-life in [18] of 6 h. On to `COc1cc(-c2nn(C3CCC(N4CCN(C)CC4)CC3)c3ncnc(N)c23)ccc1NC(=O)OCc1ccccc1` (configuration not stated), for which the IC50 at LIM domain kinase 1 [10] came to 900 nM; at LIM domain kinase 2 [8], 800 nM.

As for `CC(C)C(=O)Nc1ncc(-c2cc(C(F)F)nn2-c2c(Cl)cccc2Cl)s1`, in the series “cells”, the EC50 worked out at 30000 nM.
